Measurements published in patent publication US6624140B1, “Synthetic peptides with antimicrobial and endotoxin neutralizing properties for management of the sepsis syndrome” (Academisch Ziekenhuis Bij de Universiteit van Amsterdam …, priority 1997, dated 2003).
No end group written: not given here.

How the values were obtained:
[1] = Double-immunodiffusion against Re-LPS; type: binding, Escherichia coli; details: 0.8% agarose, 16 h at 20° C.; data not shown
Experimental: Double-immunodiffusion of the peptides of the invention against ‘rough’ R-type E. coli D31m4 Re-LPS (List Biological Laboratories Inc., Calif.) or the structurally more complex ‘smooth’ S-type E. coli 0111:B4 LPS (Sigma Chemical Co., Rockford, Ill.) was performed in 0.8% (w/v) agarose containing 50 mM Tris and 0.1% (w/v) Triton X100, pH 7.5. for 16 h at 20° C. PmB and BPI(85-102) were included as control compounds for comparative purposes. The microprecipitates formed were visualized by Coommassie brilliant blue staining. […] Since the amount of precipitate formed is a function of valency, the peptides of the invention appear to be capable of a high degree of intermolecular binding of LPS molecules via the Lipid A moieties. […] The degree of precipitation of endotoxin by the synthetic peptides according to the invention was determined by measurement of the optical density of insoluble complexes formed at 340 nm (FIG. 2). […] Binding characteristics of biotinylated derivatives of the synthetic peptides BP1, BP2, BP2.1 and the control peptide BPI(85-102) were determined on ELISA microtiter plates coated with E. coli D31m4 Lipid A. Specific binding of the biotinylated peptides to the immobilized Lipid A was determined by development with Streptavidin-HRP and 3, 5, 3′, 5′ tetra-methylbenzidine (TMB) substrate and expressed as the corrected optical density at 450 nm. […]

[2] = ELISA binding to immobilized endotoxins of increasing complexity, effect of plasma; set-up: species or system Escherichia coli
Experimental: FIG. 4. Effect of endotoxin complexity and plasma concentration on the binding of synthetic peptide BP2 of the invention to immobilized LPS. Coated ELISA microtiter plates containing E.coli D31m4 Lipid A, Re, J5 or 0111:B4 LPS were incubated with synthetic peptide at a concentration of 40 ng/ml in the presence of plasma at dilutions to 10% (v/v). Binding activity was determined by the ELISA microplate lipid A binding assay as previously described.
Double-immunodiffusion of the peptides of the invention against ‘rough’ R-type E. coli D31m4 Re-LPS (List Biological Laboratories Inc., Calif.) or the structurally more complex ‘smooth’ S-type E. coli 0111:B4 LPS (Sigma Chemical Co., Rockford, Ill.) was performed in 0.8% (w/v) agarose containing 50 mM Tris and 0.1% (w/v) Triton X100, pH 7.5. for 16 h at 20° C. PmB and BPI(85-102) were included as control compounds for comparative purposes. The microprecipitates formed were visualized by Coommassie brilliant blue staining. […] Since the amount of precipitate formed is a function of valency, the peptides of the invention appear to be capable of a high degree of intermolecular binding of LPS molecules via the Lipid A moieties. […] The degree of precipitation of endotoxin by the synthetic peptides according to the invention was determined by measurement of the optical density of insoluble complexes formed at 340 nm (FIG. 2). […]

[3] = Endotoxin Inhibition ELISA (EIE), competitive inhibition of Lipid A binding; set-up: species or system Escherichia coli; details: biotinylated BP2; 1 pg/ml E. coli 0111:B4 LPS
Experimental: FIG. 6. Competitive inhibition of binding of synthetic peptide BP2 to immobilized lipid A by endotoxin. Biotinylated BP2 peptide in the indicated concentration range was pre-incubated with E. coli 0111:B4 LPS at 1 pg/ml for 20 min at 23° C. and the residual endotoxin binding activity was determined with the use of a lipid A binding ELISA microplate assay. Individual values are the means of triplicate experiments corrected for non-specific binding.
FIGS. 7A and 7B. Detection of endotoxin in solution with a Lipid A binding assay, the endotoxin inhibition ELISA (EIE) microplate assay. Dose-response of residual LPS binding activity of synthetic peptide BP2 at 8 ng/ml after pre-incubation with E. coli 0111:B4 LPS in the ranges from 0.1 to 1000 pg/ml (Panel A) or from 0.1 to 100 pg/ml (Panel B).
Capture of the TAG labeled J5 LPS by immobilized synthetic peptide was quantitated by electrochemiluminescence detection subsequent to washing steps with phosphate buffer containing 0.1% (w/v) Triton X100 to remove excess unbound LPS. […] This confirms the high capacity of immobilized peptides of the invention for endotoxin in solution. […] LPS with high affinity and are universal lipid A binding ligands. […]

Substance	precipitation of Re LPS [1]	degree of binding versus complexity of immobilized LPS ([2]; peptide 40 ng/ml)	effect of plasma on binding to endotoxins ([2]; up to 5% (v/v) heat-treated, clarified plasma)	inhibition of binding of peptide to immobilized Lipid A [3]
Ile-Lys-Ile-Ser-Gly-Lys-Trp-Lys-Ala-Gin-Lys-Arg-Phe-Leu-Lys-Met-Ser-Gly-(Cys) (IKISGKWKAQKRFLKMSGC; listed as Homo sapiens) [BPI(85-102), reference compound]	considerably less	–	–	–
GKWKLFKKAFKKFLKILAC-OH [BP2, Gly-Lys-Trp-Lys-Leu-Phe-Lys-Lys-Ala-Phe-Lys-Lys-Phe-Leu-Lys-Ile-Leu-Ala-Cys]	–	decreases with increasing complexity of immobilized LPS	no significant effect	65%
